± gives the expanded uncertainty stated by the source. Blank lines part the entries; values can stand above or below the compound they belong to.
Settings: Liquid, Ebulliometric method (Recirculating still)

vapor or sublimation pressure (406.13 K): 60 ± 1.4 kPa | vapor or sublimation pressure (406.15 K): 60 ± 1.4 kPa | vapor or sublimation pressure (415.28 K): 80 ± 2 kPa | vapor or sublimation pressure (415.3 K): 80 ± 2 kPa | vapor or sublimation pressure (422.73 K): 100 ± 2.5 kPa | vapor or sublimation pressure (422.75 K): 100 ± 2.5 kPa
SMILES: CCCOCCO [2-propoxyethanol]

vapor or sublimation pressure (359.26 K): 60 ± 1.4 kPa | vapor or sublimation pressure (366.45 K): 80 ± 1.8 kPa | vapor or sublimation pressure (372.21 K): 100 ± 2.4 kPa
SMILES: CCC(C)O (configuration not stated) [butan-2-ol]

vapor or sublimation pressure (342.87 K): 60 ± 1.4 kPa | vapor or sublimation pressure (349.6 K): 80 ± 1.8 kPa | vapor or sublimation pressure (355.06 K): 100 ± 2.4 kPa
SMILES: CC(C)O [propan-2-ol]
